The record followed here is patent US10105305B2, “Compositions and methods for promoting skin regeneration and hair growth” (THE JOHNS HOPKINS UNIVERSITY, priority 2014, dated 2018).

The test system of one assay is murine skin wounds. Nature of the assay: Wound induced hair neogenesis (WIHN), regenerated hair follicles counted by CSLM. In kind it is in vivo, mouse. The conditions noted are these: wt C57BL/6J mice, CSLM ~WD20-24. The protocol:
Wound Induced Hair Neogenesis (WIHN). All animal protocols are approved by the Johns Hopkins University Animal Care and Use Committee. C57BL/6J, B6; 129SF2/J and TLR3 null mice (B6; 129S1-Tlr3tm1Flv/J) were obtained from The Jackson Laboratory. Mixed strain (C57BL/6J×FVB/N×SJL/J) animals were provided by Dr. Jean Richa (University of Pennsylvania).
A 1 cm2 excisional full-thickness wounds to the level of skeletal muscle on the backs of 21-day old male and female mice was performed as previously described (Ito et al., 2007; Nelson et al., 2013). Numbers of regenerated hair follicles were quantified in the re-epithelialized skin by non-invasive confocal scanning laser microscopy (CSLM) as published (Fan et al., 2011). For all experiments, […] of “intervention” was injected into healing wound (under scab) or applied topically into open wound as shown in Table 1 below.
Treatments during WIHN assay. Recombinant mouse IL-6 protein (R&D Systems, Minneapolis, Minn.) and poly(I:C) (High Molecular Weight; InVivogen, San Diego, Calif.) was diluted in sterile PBS immediately prior to injection. Cucurbitacin I (Tocris Biosciences/R&D Systems, Minneapolis Minn.) was dissolved in 10% EtOH/PBS to a final concentration of 1 mg/mL prior to injection. RNase III enzyme (Life Technologies, Grand Island N.Y.) was diluted in supplied reaction buffer

In assay [1] the test system is neo-natal human epidermal keratinocytes (NHEK). Description: qRT-PCR gene expression in cultured keratinocytes (NHEK). In kind it is cell-based. To be noted: NHEK. How it is done:
Cell Culture. Neo-natal human epidermal keratinocytes (Lonza, Walkersville, Md.) or lab-isolated foreskin keratinocytes were cultured in keratinocyte medium with added supplements (KGMGOLD). Treatment with recombinant IL-6 protein (50 ng/mL), cucurbitacin I (10-100 nM), poly (I:C) (20 μg/mL) and TLR3 pharmacological inhibitor (80 μM; EMD Millipore, Billerica, Mass.) was applied in basal medium containing transferrin, hydrocortisone and antibiotics for up to 24 hours. After 24 hours, treatment medium was replaced with KGM-GOLD and isolation of RNA as indicated.
Nucleofection. Nucleofection with siGENOME SMARTpoo1 Human Tap63, TLR3, REL-A and siCONTROL siRNA duplex oligonucleotides (Dharmacon-ThermoFischer Scientific) was performed in NHEK using the Amaxa 4D-Nucleofector according to manufacturer's instruction. Plated cells were treated with recombinant human IL-6 (50 ng/mL) protein or poly(I:C) (20 μg/mL) for 24 hours. Afterwards, treatment medium was removed and replaced with KGMGOLD complete medium for the duration of the experiment. Levels of appropriate gene expression were assessed by qRT-PCR using inventoried TaqMan reagents in three independent experiments.
Quantitative Real-Time PCR (qRT-PCR). Mouse skin was harvested prior to wounding and throughout wounding as described (Nelson et al., 2013). RNA was isolated from NHEK with RNeasy Mini Kit (Qiagen, Valencia, Calif.) with DNase I digestion. qRT-PCR was performed for genes of interest and 18S or ribosomal protein, large PO (RPLP0) (housekeeping genes) using inventoried TaqMan reagents. Differences in gene expression were assessed by comparative ΔΔCT values with fold change calculations.
A general note: In qPCR the cycle at which signal appears reflects the starting amount.

For a further assay, the system named is P-STAT3, TAp63, ΔNp63. Description: Western blot of wound tissue in wt mice (P-STAT3, TAp63, ΔNp63). In kind it is in vivo, mouse. How it is done:
FIG. 2: IL-6 and pSTAT3 mediate TLR3 effects on WIHN. A) Mean fold change in IL-6 mRNA in healed scars at WD20-24 in HR vs. LR strains of mice as determined by qRT-PCR and normalized to housekeeping gene β-actin. B) Mean fold change in IL-6 mRNA after poly (I:C) addition (20 μg/mL) to NHEK for 6 hours or in strain matched wt and TLR3 KO mice 6 hours after wounding as determined by qRT-PCR and normalized to housekeeping gene RPLP0 (NHEK) or β-actin (mouse). C) Time course of IL-6 mRNA and protein expression throughout early stage wound healing in wt mice, as determined by qRT-PCR and ELISA, respectively. D) IL-6 (middle panels) and P-STAT3 (right panels; arrows) immunohistochemistry of healing scars at WD5 and WD8 in wt mice. Scale bar=50 μm. E) Cross-section histology of healed scar at WD22 after a single injection of IL-6 (25 ng) or PBS control at WD7. Regenerated hair follicles are marked with arrows. Scale bar=100 μm. F) Regenerated hair shafts (white, arrows) at ˜WD58-62 as visualized by dissecting microscope. G) WIHN in wt mice after single dose of rmIL-6 (25 ng) compared to PBS control as measured by CSLM. H) WIHN levels in wt mice after cucurbitacin I (2 mg/kg) or control as measured by CSLM. I) P-STAT 3 levels in the presence of cucurbitacin I (+) compared to control (−) in wt mice as measured by western blot and normalized to STAT3. PC=P-STAT3 positive control cell lysate. *p<0.05 by Student's T-test or Single Factor ANOVA.
FIG. 4: dsRNA and IL-6 induce keratinocyte stem cell genes. A) Mean fold change in TAp63 mRNA after IL-6 protein (50 ng/mL)+/−cucurbitacin I in NHEK as determined by qRT-PCR and normalized to housekeeping gene, RPLP0. B) TAp63 protein levels after IL-6 (25 ng) compared to PBS control in wt mice measured by western blot; normalized to β-actin. C) TAp63 and ΔNp63 protein levels after cucurbitacin I (2 mg/kg) compared to PBS control in wt mice measured by western blot; normalized to β-actin. D) Mean fold change in KRT1 mRNA with TAp63-specific or scrambled control siRNA in the presence of IL-6 (50 ng/mL) in NHEK as determined by qRT-PCR and normalized to housekeeping gene, RPLP0. E) Mean fold change in CBX4 mRNA after poly (I:C) (20 μg/mL) addition to NHEK for 24 hours as determined by qRT-PCR and normalized as in 4D. F) Mean fold change in CBX4 mRNA after IL-6 (50 ng/mL)+/−cucurbitacin I in NHEK for 24 hours as determined by qRT-PCR and normalized as in 4D. G) Mean fold change in KRT15 mRNA 72 hours after 24 hours of poly (I:C) (20 μg/mL) treatment to NHEK as determined by qRT-PCR and normalized as in 4D. H) Flow cytometry analysis of KRT15 protein expression 72 hours after 24 hours of poly (I:C) (20 μg/mL) or control to NHEK. *p<0.05 by Student's T-test or Single Factor ANOVA.

A further assay concerns healed murine wounds. Description: Histology and immunohistochemistry of healed mouse scars (epidermal thickness, cleaved caspase 3, Ki-67). The assay is classed as in vivo. The protocol:
Immunohistochemistry, Immunocytochemistry and Histology. Immunohistochemistry was performed on formalin-fixed paraffin-embedded mouse skin samples using the avidin-biotin complex method and AEC development (Vector Laboratories). Indicated antibodies were applied overnight. Sections were counterstained with hematoxylin. Images were captured at 40× magnification using a Nikon Optiphot microscope and Nikon Elements F software. Histology was assessed by H&E after IL-6 addition. The epidermal thickness from the basal layer keratinocytes to beginning of stratum corneum in three locations per healed mouse wound in multiple histology sections was measured by Image J software.

Setting [2] is: IL-6 50 ng/mL + cucurbitacin I, 24 hours.
Setting [3] is: cucurbitacin I 2 mg/kg vs PBS, western blot.

On to `CC(C)(O)/C=C/C(=O)[C@](C)(O)[C@H]1[C@H](O)C[C@@]2(C)[C@@H]3CC=C4[C@@H](C=C(O)C(=O)C4(C)C)[C@]3(C)C(=O)C[C@]12C` [cucurbitacin I], for which, in the assay on murine skin wounds (cucurbitacin I 2 mg/kg injected at WD7), the “decrease in the number of regenerated follicles” value is on record as “greater than 3 fold”. In addition, the “effect on IL-6-induced TAp63 mRNA increase” value in assay [1] (IL-6 50 ng/mL + cucurbitacin I) is given as “reversed”. Further, in assay [1] (setting [2]), the “effect on IL-6-induced KRT1 decrease” value is listed as “reversed” and the “effect on induced CBX4 increase” value was “reversed”. In the assay on P-STAT3, TAp63, ΔNp63 (setting [3]), the ANp63 protein entry is on record as “corresponding increase” and the TAp63 protein result is listed as “decrease”. Further, the STAT3 phosphorylation entry in the assay on P-STAT3, TAp63, ΔNp63 (cucurbitacin I 2 mg/kg, western blot normalized to STAT3) is on record as “strongly suppressed”.

B1: IL-6: recombinant mouse IL-6 protein in mice; recombinant human IL-6 in NHEK (protein, UniProt P08505 25-211, looked up)
Interleukin-6: FPTSQVRRGDFTEDTTPNRPVYTTSQVGGLITHVLWEIVEMRKELCNGNSDCMNNDDALAENNLKLPEIQRNDGCYQTGYNQEICLLKISSGLLEYHSYLEYMKNNLKDNKKDKARVLQRDTETLIHIFNQEVKDLHKIVLPTPISNALLTDKLESQKEWLRTKTIQFILKSLEEFLKVTLRSTRQT
Consider B1, for which the “increase in the number of regenerated follicles vs vehicle” value in the assay with murine skin wounds (single rmIL-6 25 ng injected at WD7) is recorded as around 3 fold. Further, the “TAp63 mRNA” value in assay [1] (IL-6 50 ng/mL) was “modest increase”. Besides, in assay [1] (IL-6 50 ng/mL, 24 hours), the CBX4 expression entry is reported as “increase” and the “Keratin 1 (KRT1) differentiation marker expression” value was “profound decrease”. The “apoptosis or proliferation (cleaved caspase 3, Ki-67)” value with healed murine wounds (healed murine wounds after rmIL-6 treatment) is “no alterations”. The “reduction in epidermal thickness vs controls” value with healed murine wounds (healed scars, IL-6 25 ng at WD7 vs PBS) was found to be 2 fold. Besides, in the assay with P-STAT3, TAp63, ΔNp63 (IL-6 25 ng vs PBS, western blot normalized to β-actin), the “increase in the amount of TAp63 protein” value was 2.5 fold.
